Legend:
[1] = 10 to 40 mg over a 12 week period; 120 fibromyalgia patients; cited from earlier work
[2] = Method: In the initial tests as reported in PCT/IB2010/051373 tablets were administered three times daily.
Four selected outcome variables were used in this preliminary analysis: Global improvement (GI), Tinnitus Handicap Inventory (THI) and Tinnitus Impairment Questionnaire (TBF 12) questionnaires and Minimum Masking Levels (MML). The changes on the outcome variables were obtained by subtracting week 12's scores from the screening scores. The presence of a negative result means a decrease on values.
In Table 2 the changes on outcome variables are listed by Global Improvement (GI) classification, as follows: GI 1=much better; 2=better; 3=slightly better; 4=no change; 5=slightly worse; 6=worse; 7=much worse; THI: Tinnitus Handicap Inventory, TBF 12: Tinnitus Impairment Questionnaire; MML: minimal masking levels, measured in dB HL (Hearing Level).
Four different criteria were established to determine whether a subject responded or not to treatment (see Table 3).

CN(C)CCC=C1c2ccccc2C=Cc2ccccc21 [Cyclobenzaprine]
Quality of sleep and pain score [1]: significantly improved
Total number of tender points and muscle tightness [1]: reduction
Responders n ([2]; Criteria 2: Criteria 1 + decrease on THI): 11
Tolerability ([2]; common side effects like constipation and dry mouth may be experienced): tolerated well by most subjects
Number of subjects Better or Much Better on GI ([2]; of 15 subjects, FIG. 1): 8 subjects
Number of subjects Slightly Better, Better or Much Better on GI ([2]; of 15 subjects, FIG. 1): 11 subjects
Number of subjects with changes on tinnitus pitch ([2]; out of 15 subjects): 5 subjects
Remark in place of MML change (intermittent tinnitus) ([2]; subject 3, MML not possible to measure): change on intensity and less episodes
Trial suspension due to side effects ([2]; subject 6): Trial suspended because of side effects
Course of Minimum Masking Levels (MML) during the tests ([2]; subjects 4, 8, 9, 10 and 11, FIGS. 2-6): progressive reduction
Effect on tinnitus severity and tinnitus loudness ([2]; tested subjects): positive effect
Safety of administration ([2]; tested subjects): safe to administer

— US20130230586A1, “Treatment of Tinnitus and Related Auditory Dysfunctions” (LINK RESEARCH & GRANTS CORPORATION, priority 2010, published 2013)
